Read-outs that look alike come from different tables or passages of the source.
Experiments:
cerebral ischemia = test: General and permanent cerebral ischemia in rat (ligature of the two common carotid arteries); assay type: in vivo, male Wistar rats; conditions: 0.76 μg/kg (3.2 nmoles) i.p.; maximum score 17; control 12; P 0.005
Method: (a) General and permanent cerebral ischemia in rat. Male Wistar rats (200 to 250 g) are anesthetized by inhalation of halothane (1 to 5%) contained in a N2 O--O2 (70:30) mixture. The two common carotid arteries are ligatured simultaneously close to the passage between the internal carotid and external carotid using the method described by M. LE PONCIN-LAFITTE et al., J. Pharmacol. (Paris), 14, (1983), 99-102.
The compound to be tested is administered intraperitoneally for a first time 30 minutes before making the ligatures, and subsequently 30 minutes and 270 minutes after making the ligatures. On the next day, and on the day after the next, the neurological deficit in the surviving animals is evaluated by the method described by C. CAPDEVILLE et al., J. Pharmacol. (Paris), 15, (1984), 231-237, and by B. KOLB et al., Neurobehav. Toxicol. Teratol. 7, (1985), 71-78. […] Table III gives for compound A, administered intraperitoneally at a dose of 0.76 μg/kg (3.2 nmoles), the mean of the neurological scores determined for the whole group of surviving animals of the control group and of the treated group, as recorded two days after the ligatures. The statistical significance (P) of the difference observed between these mean values is evaluated by the Mann-Whitney test.

[1] = target: T1, presynaptic α2 -adrenergic receptors (Cavia porcellus, UniProt Q60474); test: Stimulation of the isolated guinea-pig atria (reduction in tachycardia)
T1 construct: Stimulation of a guinea-pig ileum; from tissue; host or cells: guinea-pig ileum longitudinal muscle strips
T1 sequence (Q60474 1-464): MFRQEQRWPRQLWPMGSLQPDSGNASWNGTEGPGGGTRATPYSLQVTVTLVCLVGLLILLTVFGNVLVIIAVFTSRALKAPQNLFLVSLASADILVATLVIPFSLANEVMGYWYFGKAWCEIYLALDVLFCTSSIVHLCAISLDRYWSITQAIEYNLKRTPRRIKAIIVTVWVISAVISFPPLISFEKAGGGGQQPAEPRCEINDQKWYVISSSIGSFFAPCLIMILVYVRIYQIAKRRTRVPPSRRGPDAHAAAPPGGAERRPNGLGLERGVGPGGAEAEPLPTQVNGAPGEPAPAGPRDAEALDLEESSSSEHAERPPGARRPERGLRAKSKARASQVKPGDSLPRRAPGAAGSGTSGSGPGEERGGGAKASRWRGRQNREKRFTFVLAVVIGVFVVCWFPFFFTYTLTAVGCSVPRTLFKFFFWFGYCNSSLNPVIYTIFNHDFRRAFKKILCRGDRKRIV
Excerpt: (b) Stimulation of the isolated guinea-pig atria. The release of noradrenalin at the level of the nerve endings is mediated by a feedback regulating mechanism through the presynaptic α2 -adrenergic receptors. […] Ed. D. S. DAVIES, J. L. REID, Pitman, London.
The electrical stimulation of the isolated guinea-pig atria induces a release of noradrenalin which results in an increase in the rate of the heart beat (tachycardia). This tachycardia is inhibited by an α2 -agonist such as, for example, clonidine, in a proportion which depends on the dose of the agonist used. The action of the α2 -agonist may be limited in the presence of an α2 -specific antagonist such as α-yohimbine.
The in vitro activity of the compounds of the invention on the presynaptic α2 -adrenergic receptors has been studied on the isolated guinea-pig atria, electrically stimulated according to the method described by I. C. MEDGETT et al., Naunyn-Schmiedeberg's Arch. Pharmacol. 304, (1978), 215-221. The compound to be studied is tested in increasing concentrations ranging from 10^-10 to 10^-3 mole/l. The concentration (IC30 in mole/l) which causes a 30% reduction in the maximum tachycardia obtained initially during the electrical stimulation of the atria in the absence of the compound to be tested, is determined.
On the other hand, in the presence of a concentration of 10^-6 mole/l of α-yohimbine, the concentration of compound A necessary to obtain a reduction of 30% in the tachycardia is greater than 10^-7 mole/l.

[2] = Diuretic activity in beagle dogs (urine excretion); assay type: in vivo; conditions: for Mean relative increase in urine excretion: first three hours; for minimal effective dose: Canis lupus familiaris, iv, 3 h, i.v., read-out: minimum active dose that causes a statistically significant increase of the urine excretion
Method: 4. Diuretic activity. The diuretic activity of the compounds of the invention has been determined using beagle dogs (6 males and 6 females) be means of a 6-way randomized cross-over study.
The compounds to be studied are administered intravenously at increasing doses: 2, 6.5, 20, 65 and 200 μg/kg. During the first three hours following the injection, the volume of urine excreted is measured. Table VIII gives for compound A the mean relative increase in % of the volume of urine excreted with respect to the group of animals which have not received the compound.

## Cl.NC(=O)c1cccc(Cc2c[nH]cn2)c1O [A, 2-hydroxyl-3-[(1H-imidazol-4-yl)methyl]-benzamide hydrochloride]
Cerebral ischemia
  Neurological scores after 2 days: 15
[1]; in the presence of 10^-6 mole/l of α-yohimbine
  concentration necessary to obtain a reduction of 30% in the tachycardia: greater than 10^-7 mole/l
[1]; isolated guinea-pig atria, electrical stimulation, read-out: IC30 (30% reduction in the maximum tachycardia)
  IC30: 0.9 nM
[2]; 2 μg/kg i.v., females, P < 0.05
  Mean relative increase in urine excretion: 74%
[2]; 2 μg/kg i.v., males
  Mean relative increase in urine excretion: 25%
[2]; 6.5 μg/kg i.v., females, P < 0.01
  Mean relative increase in urine excretion: 291%
[2]; 6.5 μg/kg i.v., males, P < 0.05
  Mean relative increase in urine excretion: 122%
[2]; 20 μg/kg i.v., females, P < 0.01
  Mean relative increase in urine excretion: 531%
[2]; 20 μg/kg i.v., males, P < 0.01
  Mean relative increase in urine excretion: 383%
[2]; 65 μg/kg i.v., females, P < 0.01
  Mean relative increase in urine excretion: 804%
[2]; 65 μg/kg i.v., males, P < 0.01
  Mean relative increase in urine excretion: 345%
[2]; 200 μg/kg i.v., females, P < 0.01
  Mean relative increase in urine excretion: 988%
[2]; 200 μg/kg i.v., males, P < 0.01
  Mean relative increase in urine excretion: 412%
[2]; females
  minimal effective dose: ≤ 2 µg/kg
[2]; males
  minimal effective dose: ≤ 6.5 µg/kg

Reference: US4923865A, “Substituted 1-(1H-imidazol-4-yl)alkyl-benzamides as anti-ischemics and as alpha-2-adrenergic receptor agonists” (U C B Societe Anonyme, priority 1988, dated 1990)
